Results on two molecules are retold here after patent US20250213463A1, “TOPICAL COMPOSITION AND USES THEREOF” (COTY INC., priority 2021, published 2025).

The test system of this assay is Normal human primary fibroblasts. Briefly: Fibronectin release by UV-irradiated normal human primary fibroblasts (Human Magnetic Luminex Assay). It is filed as cell-based. The procedure:
Normal human primary fibroblasts were seeded in culture well plates at 200,000 cells/cm^2 with DMEM (Dulbecco's Modified Eagle Medium) culture medium. 24 hours later, culture medium was removed, cells were rinsed with PBS (Phosphate Buffered Saline), and fresh PBS was applied to the cells. Cells were then exposed to UV irradiation (from 300 to 400 nm) for a time to cause physical and/or chemical UV-induced change, without exposure to active ingredients. Immediately after irradiation, PBS was removed and the active ingredients creatine, palmitoylTripeptide-5 (Lys-Val-Lys) and bifida ferment lysate diluted in culture medium were applied for 72 hours. Cells were incubated at +37° C. with 5% CO2.
Quantification of fibronectin release was performed by using Human Magnetic Luminex Assays (ref: LXSAHM-03) according to the protocol described by the supplier. Results were expressed in pg/ml.

On to `CN(CC(=O)O)C(=N)N` [Creatine], for which the “effect on fibronectin production/levels (in words)” value (UV-irradiated fibroblasts, 72 hours treatment, FIG. 1) was “does not appear to exert a positive impact”. In the case of palmitoylTripeptide-5 (Lys-Val-Lys), the “increase in fibronectin production over either no treatment or creatine treatment alone” value (UV-irradiated fibroblasts, 72 hours treatment) stood at 36.9%. Besides, under “fibroblasts exposed to UV (300 to 400 nm), then actives in culture medium for 72 hours”, the “fibronectin production in irradiated cells” value stood at 550K.
